The values below come from patent US9701669B2, “Preparation and use of 7a-amide substituted- 6,6-difluoro bicyclic himbacine derivatives as PAR-1 receptor antagonists” (Merck Sharp & Dohme Corp., priority 2013, dated 2017).

Data set [1] deals with PAR-1 receptor (Homo sapiens (Human), UniProt P25116). The data set is described as follows: PAR-1 FLIPR Assay. Conditions: for IC50: HEK 293 cells, calcium signal after PAR-1 selective receptor-activating peptide at 80% activation. Format: cell-based. The method, then:
This assay measures the potency of the inventive compounds as PAR-1 receptor antagonists.
Frozen HEK 293 Cells were plated in 384-well PDL coated plates at 12000 cells/well in 50 uL of DMEM media containing 10% FBS, pen/strep/L-Glutamine and non-essential amino acids, incubated overnight at 37° C./5% CO2. Media was then removed from the cells, incubated with 33 ul of Calcium-5 dye in assay buffer (Hank's buffer containing 20 mM HEPES, 0.04% Chaps and 2.5 mM Probenecid) for 60 minutes at 37° C. 2 uL of varying concentrations of compound in 40% DMSO in assay buffer (final DMSO concentration is 2.3%) were then added to the cells and incubated at 25° C. for 30 minutes. […] The range of peptide was from 1.5-3 μM. The final volume was 40 uL/well, with 2% DMSO. […] The data were analyzed by taking the peak signal over a portion of the range of the 60 scans and dividing this signal by the minimum signal for that same range.

Data set [2] has as its target human Ether-á-go-go Related Gene (hERG) ion channel (Homo sapiens (Human), UniProt Q12809). Put plainly: MK-499 Filter Binding Assay. On the procedure:
This assay is used to evaluate the potential of a compound to cause drug-induced long QT syndrome.
Drug cardiac arrhythmia is an important safety concern for pharmaceutical development and health regulatory authorities.
Then, 30 μL wash buffer (10 mM HEPES/NaOH, pH 7.4, 130 mM NaCl, 2 mM MgCl2, 1 mM CaCl2) equilibrated to RT were added to each well of the assay plate and subsequently transferred to the filter plate. The assay mixture was aspirated through the filter plate using a Biotek ELx405™ washer. The filter plate was washed twice with 100 μl cold wash buffer per wash and well and then dried in a drying oven for at least 75 min at 55° C. Afterwards, the bottom of each filter plate was heat sealed with a solid foil seal, then 10 μL of Microscint™ 0 (Perkin Elmer) were added to each well of the filter plate and finally, the top of each filter plate was sealed with a clear seal. The plates were stored for at least 20 min in a MicroBeta2 reader (Perkin Elmer) before they are counted (60 sec/well).

The mark [3] stands for this setting: membranes from HEK293 cell line expressing hERG, [35S]MK-0499 radioligand, read-out: MK499 IC50.

Read-outs that look alike come from different tables or passages of the source.

PAR-1 receptor, sequence (P25116 22-425): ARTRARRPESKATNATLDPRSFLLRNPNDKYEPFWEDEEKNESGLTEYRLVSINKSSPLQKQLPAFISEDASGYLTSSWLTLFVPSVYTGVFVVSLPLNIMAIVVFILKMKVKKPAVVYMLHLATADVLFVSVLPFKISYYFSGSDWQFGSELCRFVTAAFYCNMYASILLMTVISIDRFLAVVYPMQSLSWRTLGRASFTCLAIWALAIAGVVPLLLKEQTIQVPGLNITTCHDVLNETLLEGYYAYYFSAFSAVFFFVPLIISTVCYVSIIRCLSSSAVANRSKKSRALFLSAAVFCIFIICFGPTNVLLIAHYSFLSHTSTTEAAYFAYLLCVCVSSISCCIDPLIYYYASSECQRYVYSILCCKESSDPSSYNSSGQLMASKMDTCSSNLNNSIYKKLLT
human Ether-á-go-go Related Gene (hERG) ion channel, sequence (Q12809 whole entry): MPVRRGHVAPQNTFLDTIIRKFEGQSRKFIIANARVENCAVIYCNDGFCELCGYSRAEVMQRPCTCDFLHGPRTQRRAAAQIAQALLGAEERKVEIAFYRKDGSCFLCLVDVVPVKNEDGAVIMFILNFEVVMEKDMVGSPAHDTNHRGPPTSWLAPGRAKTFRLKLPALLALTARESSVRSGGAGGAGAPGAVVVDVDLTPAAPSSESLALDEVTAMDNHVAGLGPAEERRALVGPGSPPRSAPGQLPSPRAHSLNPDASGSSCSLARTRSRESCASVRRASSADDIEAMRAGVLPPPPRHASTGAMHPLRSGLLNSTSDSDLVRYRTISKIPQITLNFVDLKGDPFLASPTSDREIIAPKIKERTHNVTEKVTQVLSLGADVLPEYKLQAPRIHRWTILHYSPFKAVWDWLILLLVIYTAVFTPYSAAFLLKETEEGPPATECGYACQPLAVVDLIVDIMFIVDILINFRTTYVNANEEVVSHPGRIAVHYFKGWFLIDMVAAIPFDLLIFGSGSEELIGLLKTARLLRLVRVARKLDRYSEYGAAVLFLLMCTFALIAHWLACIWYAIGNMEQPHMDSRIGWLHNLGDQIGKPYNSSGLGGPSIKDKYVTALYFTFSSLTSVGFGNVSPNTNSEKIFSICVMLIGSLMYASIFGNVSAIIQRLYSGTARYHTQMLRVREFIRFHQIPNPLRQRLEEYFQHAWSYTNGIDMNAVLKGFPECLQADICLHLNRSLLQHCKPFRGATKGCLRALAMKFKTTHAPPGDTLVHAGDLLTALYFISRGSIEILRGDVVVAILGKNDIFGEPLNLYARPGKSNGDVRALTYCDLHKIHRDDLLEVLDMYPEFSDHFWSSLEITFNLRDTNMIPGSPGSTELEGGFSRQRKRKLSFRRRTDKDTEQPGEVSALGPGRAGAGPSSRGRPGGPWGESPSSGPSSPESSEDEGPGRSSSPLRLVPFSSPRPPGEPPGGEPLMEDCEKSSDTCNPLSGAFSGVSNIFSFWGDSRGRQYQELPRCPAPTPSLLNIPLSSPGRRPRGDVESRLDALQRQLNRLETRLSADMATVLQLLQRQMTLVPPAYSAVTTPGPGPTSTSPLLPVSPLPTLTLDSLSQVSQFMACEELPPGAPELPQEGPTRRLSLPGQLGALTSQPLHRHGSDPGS

What is called IC50 is the point on the concentration scale where inhibition reaches its midpoint. On to `C[C@H]1OC(=O)[C@]2(C(N)=O)CC(F)(F)[C@@H](C)[C@H](/C=C/c3ccc(-c4ccccc4C#N)cn3)[C@H]12` [Example 1, (1R,3aR,6S,7R,7aS)-7-((E)-2-(5-(2-cyanophenyl)pyridin-2-yl)vinyl)-5,5-difluoro-1,6-dimethyl-3-oxooctahydroisobenzofuran-3a-carboxamide], for which the IC50 in data set [1] amounted to 2.93 nM.

For the compound `C[C@H]1OC(=O)[C@]2(C(C)(C)C(N)=O)CC(F)(F)[C@@H](C)[C@H](/C=C/c3ccc(-c4ccccc4C#N)cn3)[C@H]12` [Example 21, 2-((1R,3aR,6S,7R,7aS)-7-((E)-2-(5-(2-cyanophenyl)pyridin-2-yl)vinyl)-5,5-difluoro-1,6-dimethyl-3-oxooctahydroisobenzofuran-3a-yl)-2-methylpropanamide], the IC50 in data set [1] was 17.1 nM.

Regarding `C[C@H]1OC(=O)[C@]2(NCC(N)=O)CC(F)(F)[C@@H](C)[C@H](/C=C/c3ccc(-c4ccccc4C#N)cn3)[C@H]12` [Example 18, 2-(((1R,3aS,6S,7R,7aS)-7-((E)-2-(5-(2-cyanophenyl)pyridin-2-yl)vinyl)-5,5-difluoro-1,6-dimethyl-3-oxooctahydroisobenzofuran-3a-yl)amino)acetamide], the IC50 in data set [1] was determined as 4.3 nM.

Regarding `C[C@H]1OC(=O)[C@]2(CC(N)=O)CC(F)(F)[C@@H](C)[C@H](/C=C/c3ccc(-c4cccnc4C#N)cn3)[C@H]12` [Example 17, 2-((1R,3aR,6S, 7R,7aS)-7-((E)-2-(2′-cyano-[3,3′-bipyridin]-6-yl)vinyl)-5,5-difluoro-1,6-dimethyl-3-oxooctahydro-isobenzofuran-3a-yl)acetamide], the IC50 in data set [1] turned out to be 21.2 nM. Same read-out and setting: as for `C[C@H]1OC(=O)[C@]2(CCC(N)=O)CC(F)(F)[C@@H](C)[C@H](/C=C/c3ccc(-c4ccccc4C#N)cn3)[C@H]12` [Example 14, 3-((1R,3aR,6S,7R,7aS)-7-((E)-2-(5-(2-cyanophenyl)pyridin-2-yl)vinyl)-5,5-difluoro-1,6-dimethyl-3-oxooctahydroisobenzofuran-3a-yl)propanamide], the figure is 4.4 nM. As to `Cc1cccc(-c2ccc(/C=C/[C@@H]3[C@@H]4[C@@H](C)OC(=O)[C@]4(C(N)=O)CC(F)(F)[C@H]3C)nc2)c1F` [Example 2, (1R,3aR,6S,7R, 7aS)-5,5-difluoro-7-((E)-2-(5-(2-fluoro-3-methylphenyl)pyridin-2-yl)vinyl)-1,6-dimethyl-3-oxooctahydro-isobenzofuran-3a-carboxamide], the values for the IC50 in data set [1] and in data set [2] (setting [3]) were 3.8 nM and 13000 nM, respectively.

For `COc1ncccc1-c1ccc(/C=C/[C@@H]2[C@@H]3[C@@H](C)OC(=O)[C@]3(CC(N)=O)CC(F)(F)[C@H]2C)nc1` [Example 16, 2-((1R,3aR,6S, 7R,7aS)-5,5-difluoro-7-((E)-2-(2′-methoxy-[3,3′-bipyridin]-6-yl)vinyl)-1,6-dimethyl-3-oxooctahydro-isobenzofuran-3a-yl)acetamide], the IC50 came out at 104 nM in data set [1] and 25900 nM in data set [2] (setting [3]). The like results for `C[C@H]1OC(=O)[C@]2(C(N)=O)CC(F)(F)[C@@H](C)[C@H](/C=C/c3ccc(-c4cccc5c4OC(F)(F)O5)cn3)[C@H]12` [Example 10, (1R,3aR,6S,7R,7aS)-7-((E)-2-(5-(2,2-difluorobenzo[d][1,3]dioxol-4-yl)pyridin-2-yl)vinyl)-5,5-difluoro-1,6-dimethyl-3-oxooctahydroisobenzofuran-3a-carboxamide] were, in that order, 4.49 nM and 15400 nM. On to `C[C@H]1OC(=O)[C@]2(C(O)C(N)=O)CC(F)(F)[C@@H](C)[C@H](/C=C/c3ccc(-c4ccccc4C#N)cn3)[C@H]12` (mixture of isomers) [Example 20, (S and R)-2-((1R,3aR,6S, 7R,7aS)-7-((E)-2-(5-(2-cyanophenyl)pyridin-2-yl)vinyl)-5,5-difluoro-1,6-dimethyl-3-oxooctahydro-isobenzofuran-3a-yl)-2-hydroxyacetamide], for which the IC50 in data set [1] stood at 4.41 nM. `C[C@H]1OC(=O)[C@]2(C(N)=O)CC(F)(F)[C@@H](C)[C@H](/C=C/c3ccc(-c4cccnc4C#N)cn3)[C@H]12` [Example 11]: the figures for the IC50 in data set [1] and in data set [2] (setting [3]) were 9.68 nM and 60000 nM, respectively. In the case of `COC(C(N)=O)[C@@]12CC(F)(F)[C@@H](C)[C@H](/C=C/c3ccc(-c4ccccc4C#N)cn3)[C@@H]1[C@@H](C)OC2=O` (mixture of isomers) [Example 19, (S and R)-2-((1R,3aR,6S,7R,7aS)-7-((E)-2-(5-(2-cyanophenyl)pyridin-2-yl)vinyl)-5,5-difluoro-1,6-dimethyl-3-oxooctahydroisobenzofuran-3a-yl)-2-methoxyacetamide], in data set [1] (unit printed as 'mn' (apparent misprint of nM), same assay as E1, unit of the source corrected), the PAR-1 FLIPR IC50 was 3.02 nM. Besides, the IC50 in data set [2] (setting [3]) worked out at 47700 nM. `C[C@H]1OC(=O)[C@]2(CCC(N)=O)CC(F)(F)[C@@H](C)[C@H](/C=C/c3ccc(-c4cccnc4C#N)cn3)[C@H]12` [Example 15, 3-((1R,3aR,6S, 7R,7aS)-7-((E)-2-(2′-cyano-[3,3′-bipyridin]-6-yl)vinyl)-5,5-difluoro-1,6-dimethyl-3-oxooctahydro-isobenzofuran-3a-yl)propanamide]: the concentration for half-maximal inhibition (IC50) in data set [1] was found to be 6.34 nM; in data set [2] (human, pH 7.4), 60000 nM. For the compound `Cc1nc(/C=C/[C@@H]2[C@@H]3[C@@H](C)OC(=O)[C@]3(C(N)=O)CC(F)(F)[C@H]2C)ccc1-c1ccccc1C#N` [Example 4, (1R,3aR,6S,7R, 7aS)-7-((E)-2-(5-(2-cyanophenyl)-6-methylpyridin-2-yl)vinyl)-5,5-difluoro-1,6-dimethyl-3-oxooctahydro-isobenzofuran-3a-carboxamide], the IC50 in data set [2] (human, pH 7.4) stood at 60000 nM.

For the compound `C[C@H]1OC(=O)[C@]2(CC(N)=O)CC(F)(F)[C@@H](C)[C@H](/C=C/c3ccc(-c4ccccc4C#N)cn3)[C@H]12` [Example 5, 2-((1R,3aR,6S,7R,7aS)-7-((E)-2-(5-(2-cyanophenyl)pyridin-2-yl)vinyl)-5,5-difluoro-1,6-dimethyl-3-oxooctahydroisobenzofuran-3a-yl)acetamide], the IC50 in data set [1] was found to be 3.14 nM.

Turning to `Cc1c(F)cccc1-c1ccc(/C=C/[C@@H]2[C@@H]3[C@@H](C)OC(=O)[C@]3(C(N)=O)CC(F)(F)[C@H]2C)nc1` [Example 3, (1R,3aR, 6S,7R,7aS)-5,5-difluoro-7-((E)-2-(5-(3-fluoro-2-methylphenyl)pyridin-2-yl)vinyl)-1,6-dimethyl-3-oxooctahydro-isobenzofuran-3a-carboxamide], the figures for the 50% inhibitory concentration (IC50) in data set [1] and in data set [2] (setting [3]) were 1.37 nM and 12000 nM, respectively.

On to `C[C@H]1OC(=O)[C@]2(N3CC(C(N)=O)C3)CC(F)(F)[C@@H](C)[C@H](/C=C/c3ccc(-c4ccccc4C#N)cn3)[C@H]12` [Example 12, 1-((1R,3aS,6S,7R,7aS)-7-((E)-2-(5-(2-cyanophenyl)pyridin-2-yl)vinyl)-5,5-difluoro-1,6-dimethyl-3-oxo-octahydroisobenzofuran-3a-yl)azetidine-3-carboxamide], for which the IC50 in data set [1] came to 5.7 nM; in data set [2] (setting [3]) it was 16300 nM. `C[C@H]1OC(=O)[C@]2(N3CC(C(N)=O)C3)CC(F)(F)[C@@H](C)[C@H](/C=C/c3ccc(-c4cccc(F)c4)cn3)[C@H]12` [Example 13, 1-((1R,3aS,6S, 7R,7aS)-5,5-difluoro-7-((E)-2-(5-(3-fluorophenyl)pyridin-2-yl)vinyl)-1,6-dimethyl-3-oxo-octahydro-isobenzofuran-3a-yl)azetidine-3-carboxamide]: the concentration for half-maximal inhibition (IC50) in data set [1] was determined as 13.9 nM.
